Legend:
[1] = system: PAF (Platelet activating factor); assay: Plasma PAF content by ELISA, rabbit wound-limb deep venous thrombosis forming model; assay type: in vivo; settings: for PAF content (x ± SD): rabbit wound-limb deep venous thrombosis model, *p<0.05, **p<0.01, ***p<0.001 vs model group
Experimental: Eight were taken as control group and the rest were treated by a striking device. […] Specifically: the rabbit was anesthetized by intravenous injection of 3% pentobarbital sodium at ear edge with the dose of 1 ml/kg. The rabbit was kept laying down at right side prostrate position and the left thigh was set on the striking platform. […] The self-made striking device was used for striking the outer side of the thigh near-end, and the plaster was used for fixing the left limb on the hip/knee-bending area. When the plaster bandage was applied and the right hip was examined to move freely, the rabbit was kept to lay down until solidification. After the model establishment, the animal was allowed to drink water normally and was fed with granular food. No anticoagulant or antibiotic was used. Animals were grouped after modeling. The drug was fed according to table 4 via oral gavage, once a day for 7 days continuously. At 0.5, 1.0, 2.0, 3.0 and 4.0 h after the first administration, blood was taken from ear central artery. Plasma was separated and the content of PAF was determined by ELISA.

[2] = system: coagulation function (aPTT); assay: aPTT of coagulation function, rabbit wound-limb deep venous thrombosis forming model; assay type: in vivo; settings: for aPPT: 5 mg/kg i.g., x ± SD
Experimental: (§1) Eight were taken as control group and the rest were treated by a striking device. Striking area was a round surface with the diameter of 1.5 cm, the wounding energy was calculated according to Ep=mgh, and the energy of each striking of the iron rod is 7.5 J.
(§2) Specifically: the rabbit was anesthetized by intravenous injection of 3% pentobarbital sodium at ear edge with the dose of 1 ml/kg. The rabbit was kept laying down at right side prostrate position and the left thigh was set on the striking platform. Found the trochanter of the left femur and set the striking head attached to area from the trochanter to the 1.5 cm below. The self-made striking device was used for striking the outer side of the thigh near-end, and the plaster was used for fixing the left limb on the hip/knee-bending area. When the plaster bandage was applied and the right hip was examined to move freely, the rabbit was kept to lay down until solidification. After the model establishment, the animal was allowed to drink water normally and was fed with granular food. No anticoagulant or antibiotic was used.
(§3) Animals were grouped after modeling. The drug was fed according to table 4 via oral gavage, once a day for 7 days continuously.
(§4) At 0.5, 1.0, 2.0, 3.0 and 4.0 h after the first administration, blood was taken from ear central artery. Plasma was separated and aPPT, PT and the anti-factor Xa activity were determined on an automatic coagulation detector.

factor Xa [3] = assay: Plasma anti-factor Xa activity, rabbit wound-limb deep venous thrombosis forming model; assay type: in vivo
Experimental: as §1, §2, §3, §4

factor Xa [4] = assay: Anti-coagulation factor Xa activity in vitro (chromogenic substrate assay); assay type: biochemical, rabbit
Experimental: A chromogenic substrate assay was adopted, and plasma anti-Xa activity was determined on a microplate reader according to a kit specification and reference documents.

[5] = system: coagulation function (PT); assay: PT of coagulation function, rabbit wound-limb deep venous thrombosis forming model; assay type: in vivo; settings: 5 mg/kg i.g., x ± SD
Experimental: as §1, §2, §3, §4

[6] = system: venous thromboembolism (VTE); settings: cited from earlier work
[7] = in vivo; cited from earlier work
[8] = plasma, 5 mg/kg i.g., 0.5 h after administration, x ± SD
[9] = plasma, 5 mg/kg i.g., 1 h after administration, x ± SD
[10] = plasma, 5 mg/kg i.g., 2 h after administration, x ± SD
[11] = plasma, 5 mg/kg i.g., 3 h after administration, x ± SD
[12] = plasma, 5 mg/kg i.g., 4 h after administration, x ± SD

Row | Compound | PAF content (x ± SD) ([1]; 1 h after administration) | PAF content (x ± SD) ([1]; 3 h after administration) | PAF content compared to model group ([1]; 4 h after administration) | aPPT ([2]; 0.5 h after administration) | aPPT ([2]; 1 h after administration) | aPPT ([2]; 2 h after administration) | aPPT ([2]; 3 h after administration) | aPPT ([2]; 4 h after administration) | aPTT compared with model group ([2]; 1 h after administration) | anti-factor Xa activity (factor Xa [3]; [8]) | anti-factor Xa activity (factor Xa [3]; [9]) | anti-factor Xa activity (factor Xa [3]; [10]) | anti-factor Xa activity (factor Xa [3]; [11]) | anti-factor Xa activity (factor Xa [3]; [12]) | anti-factor Xa activity (factor Xa [4]) | PT ([5]; 0.5 h after administration) | PT ([5]; 1 h after administration) | PT ([5]; 2 h after administration) | PT ([5]; 3 h after administration) | PT ([5]; 4 h after administration) | also measured
1 | COc1ccc(-n2nc(C(N)=O)c3c2C(=O)N(c2ccc(N4CCCCC4=O)cc2)CC3)cc1 [Apixaban] | 1543.57 ± 239.95 ng/L | 1865.71 ± 371.23 ng/L | extremely significant decrease | 19.05 ± 6.17 s | 24.26 ± 7.89 s | 23.94 ± 5.49 s | 31.71 ± 8.53 s | 29.21 ± 11.35 s | no obvious extension | 0.16 ± 0.10 IU/ml | 0.26 ± 0.04 IU/ml | 0.25 ± 0.10 IU/ml | 1.22 ± 0.22 IU/ml | 1.12 ± 0.15 IU/ml | 1.07 IU/ml |  |  |  |  |  | PAF content (x ± SD) ([1]; 2 h after administration): 1117.86 ± 231.52 ng/L; anti-factor Xa activity (factor Xa [3]; 0.5 h-4 h after administration): extremely significant difference
2 | CC1C(=O)OC2C(O)C34C5CC(C(C)(C)C)C36C(OC(=O)C6O)OC4(C(=O)O5)C12O (centres unmarked) [Ginkgolide B] | 1255.71 ± 300.73 ng/L | 1656.43 ± 259.36 ng/L |  | 25.89 ± 8.15 s | 30.65 ± 6.79 s | 25.83 ± 5.96 s | 34.30 ± 6.56 s | 31.92 ± 7.77 s | obviously extended | 0.08 ± 0.07 IU/ml | 0.10 ± 0.10 IU/ml | 0.35 ± 0.22 IU/ml | 0.74 ± 0.15 IU/ml | 0.65 ± 0.12 IU/ml | 0.57 IU/ml | 6.76 ± 0.32 s | 6.79 ± 0.27 s | 6.75 ± 0.36 s | 6.72 ± 0.24 s | 6.68 ± 0.23 s | PAF content compared to model group ([1]; 2 h after administration): decreased significantly; anti-factor Xa activity (factor Xa [3]; 0.5 h-4 h after administration): increased with time
3 | CN(C)Cc1nccn1-c1ccc(NC(=O)c2cc(C(F)(F)F)nn2-c2ccc3onc(N)c3c2)c(F)c1 [Razaxaban] | 1501.29 ± 131.10 ng/L | 1641.26 ± 242.32 ng/L | decreased significantly | 20.13 ± 6.74 s | 26.23 ± 8.43 s | 22.33 ± 4.46 s | 35.75 ± 8.68 s | 29.65 ± 9.72 s | no obvious extension | 0.20 ± 0.14 IU/ml | 0.18 ± 0.05 IU/ml | 0.23 ± 0.08 IU/ml | 1.31 ± 0.30 IU/ml | 1.32 ± 0.09 IU/ml | 0.86 IU/ml | 6.71 ± 0.25 s | 7.41 ± 0.51 s | 6.47 ± 0.25 s | 6.47 ± 0.41 s | 6.70 ± 0.25 s | PAF content (x ± SD) ([1]; 0.5 h after administration): 889.42 ± 326.32 ng/L; VTE occurrence rate compared with enoxaparin ([6]; patients taking Razaxaban 25 mg, total knee replacement): significantly lower; occurrence rate of large bleeding compared with enoxaparin ([6]; patients taking Razaxaban 25 mg): similar; large bleeding compared with Enoxaparin ([6]; patients taking Razaxaban 50-100 mg): more likely to have large bleeding
4 | Otamixaban | 1526.56 ± 212.31 ng/L | 1745.52 ± 356.26 ng/L | decreased significantly | 21.67 ± 9.42 s | 25.71 ± 7.68 s | 25.61 ± 6.75 s | 34.62 ± 7.59 s | 30.16 ± 9.37 s | no obvious extension | 0.19 ± 0.04 IU/ml | 0.25 ± 0.10 IU/ml | 0.26 ± 0.14 IU/ml | 1.25 ± 0.12 IU/ml | 1.24 ± 0.06 IU/ml | 1.03 IU/ml | 6.58 ± 0.45 s | 6.74 ± 0.26 s | 6.52 ± 0.43 s | 6.62 ± 0.42 s | 7.82 ± 0.31 s | PAF content (x ± SD) ([1]; 2 h after administration): 1123.45 ± 224.51 ng/L; excretion through kidney [7]: less than 25%
5 | O=C(NC[C@H]1CN(c2ccc(N3CCOCC3=O)cc2)C(=O)O1)c1ccc(Cl)s1 [Rivaroxaban] | 1484.29 ± 129.00 ng/L | 1671.43 ± 236.95 ng/L | extremely significant decrease | 27.89 ± 7.97 s | 32.01 ± 9.31 s | 34.63 ± 5.57 s | 35.92 ± 10.85 s | 29.20 ± 6.32 s | obviously extended | 0.37 ± 0.09 IU/ml | 0.31 ± 0.13 IU/ml | 0.18 ± 0.05 IU/ml | 1.32 ± 0.16 IU/ml | 1.38 ± 0.18 IU/ml | 0.54 IU/ml | 6.76 ± 0.30 s | 7.20 ± 0.96 s | 6.90 ± 0.34 s | 6.81 ± 0.22 s | 6.70 ± 0.33 s | PAF content (x ± SD) ([1]; 0.5 h after administration): 886.43 ± 314.24 ng/L; anti-factor Xa activity (factor Xa [3]; 0.5 h-4 h after administration): extremely significant difference
6 | CN1CCc2nc(C(=O)N[C@@H]3C[C@@H](C(=O)N(C)C)CC[C@@H]3NC(=O)C(=O)Nc3ccc(Cl)cn3)sc2C1 [Edoxaban] | 1236.72 ± 301.62 ng/L | 1623.43 ± 256.35 ng/L |  | 26.77 ± 7.65 s | 25.01 ± 9.52 s | 33.63 ± 5.45 s | 36.47 ± 9.12 s | 27.20 ± 6.31 s | no obvious extension |  |  |  |  |  |  | 6.73 ± 0.15 s | 6.14 ± 0.26 s | 6.28 ± 0.42 s | 6.45 ± 0.65 s | 6.42 ± 0.34 s | 

Source: US10058533B2, “Pharmaceutical composition containing Ginkgolide B and Xa factor inhibitor, preparation method thereof and use thereof” (CHENGDU BAIYU PHARMACEUTICAL CO., LTD, priority 2014, dated 2018)
